{"source": "patent US20210008104A1", "about": "“COMPOSITIONS AND METHODS FOR INHIBITING HIV-1 REVERSE TRANSCRIPTASE” (The United States of America, as represented by the …, priority 2017, published 2021)", "key": {"[1]": {"target": "T1, pol β-nicked DNA complexes (Homo sapiens, UniProt P06746)", "T1 construct": "made in house", "test": "Time-lapse crystallography of the reverse reaction", "protocol": "Binary complex crystals with nicked DNA were grown as previously described43. The time-lapse crystallography was performed as before11 and is briefly summarized here. Binary pol β/DNA complex crystals were first transferred to a cryosolution containing 15% ethylene glycol, 50 mM imidazole, pH 7.5, 20% PEG3350, 90 mM sodium acetate, 2 mM PNP and 50 mM CaCl2) for 1 h. These ground state (GS) ternary complex crystals were then transferred to a cryosolution containing 200 mM MgCl2 for varying times. All reactions were stopped by freezing the crystals at 100K before data collection at the home source, 1.54 Å, or the Advanced Photon Source, 1.0 Å (Argonne National Laboratory). In house data collection was done on a SATURN92 CCD detector system mounted on a […] rotating anode generator. This allows for anomalous data detection after phasing by molecular replacement. […] Initial models were determined using molecular replacement with the open binary (PDB ID 3ISB) or closed ternary (PDB ID 2FMS) structures of pol β and all Rfree flags were taken from the starting model. […] The metal-ligand coordination restraints were generated by ReadySet (PHENIX) and not used until the final rounds of refinement. […] Ramachandran analysis determined 100% of nonglycine residues lie in allowed regions and at least 97% in favored regions."}, "human DNA polymerase β [2]": {"target": "T2, human DNA polymerase β (Homo sapiens, UniProt P06746)", "test": "Removal of chain-terminated or mismatched primer termini by reverse reaction", "assay_type": "biochemical", "parameters": "made in house", "settings": "G-A or G-T primer terminal mismatch", "protocol": "The removal of a terminated primer terminus by the reverse reaction required enzymatic synthesis of the nicked DNA substrate. A pre-incubated mixture of 4 μM pol and 0.4 μM one-nucleotide gapped DNA was mixed 1:1 (v/v) with 20 mM MgCl2 and 0.2 μM various triphosphates of chain-terminating nucleotides ([…], or dFdCTP). The gap-filling reaction proceeded at 37° C. for 10-20 min to generate a terminated nicked DNA substrate. An aliquot was removed and quenched to verify complete gap filling (16-mer). The reverse reaction was initiated by addition of an equal volume of 10 mM MgCl2 and 250 μM PPi or PNP. An aliquot (time=3 min) was removed, quenched, and analyzed on a denaturing gel. The removal of a terminal mismatch by a reverse reaction was followed by incubation of […] Pol with 100 nM 5'-^32P-labeled nicked DNA substrate with a matched (G-C) or mismatched (G-A or G-T) primer terminal base pair for 5 min at 37° C. This was mixed with a solution of 20 mM MgCl2 and 2 mM PPi or PNP (1:1, v/v) to initiate the reaction."}, "human DNA polymerase β [3]": {"target": "T2, human DNA polymerase β", "test": "Overall equilibrium constant determination (gapped vs nicked DNA)", "assay_type": "biochemical", "parameters": "made in house", "settings": "dCTP", "protocol": "A mixture of 500 nM pol β with single-nucleotide gapped DNA (pol/DNA=10; templating G or C) containing various concentrations of PPi (500-2,000 μM) or PNP (20, 50, 100 μM) was mixed with an equal volume of 20 mM MgCl2 containing 60-100 nM dCTP or 50 μM dGMPPNP and incubated at 37° C. for various time intervals. Aliquots (10 μl) were withdrawn at various times and quenched with an equal volume of 0.3 M EDTA. The reactions were quenched after 10-80 s and reaction products separated on a sequencing gel. The substrate (gapped DNA) and product (nicked DNA) bands were quantitated, and the overall equilibrium constant calculated; Keq=[nicked DNA][PPi]/[gapped DNA][dCTP] or [nicked DNA] [PNP]/[gapped DNA][dGMPPNP]. The mean and standard error for 6 independent determinations are reported in the text."}, "human DNA polymerase β [4]": {"target": "T2, human DNA polymerase β", "settings": "[32P]PPi into dCTP, slope/enzyme-DNA complex", "protocol": "Pyrophosphate exchange assay. Pol β (2.5 μM) was pre-incubated with 500 nM unlabeled nicked DNA substrate containing a matched primer terminal base pair (G-C, template-primer) in reaction buffer with 20 mM MgCl2 and manually mixed (1:1, v/v) with a prewarmed solution of reaction buffer, 2 mM [^32P] PPi, and 100 μM dCTP. Aliquots were withdrawn at various time points and quenched with 1 vol. of 0.3 M EDTA. Quenched reactions mixtures were applied to PEI cellulose plates and developed in 0.3 M potassium phosphate buffer, pH 8.0. Plates were scanned followed by quantitation using a phosphorimager and ImageQuant software."}, "human DNA polymerase β [5]": {"target": "T2, human DNA polymerase β", "test": "Single-turnover analysis of reverse reaction (pyrophosphorolysis / PNP-dependent) on nicked DNA", "assay_type": "biochemical", "parameters": "made in house", "protocol": "Reaction buffer. All kinetic measurements were performed in a buffer containing 50 mM MES, 25 mM Tris, 25 mM ethanolamine (pH 7.5 adjusted at 37° C.), 100 mM KCl, 10 mM MgCl2 supplemented with 10% glycerol, 100 μg/ml bovine serum albumin, 1 mM DTT, and 0.1 mM EDTA. […] DNA polymerase β was used to fill a 1-nucleotide gapped DNA substrate with either [^32P] dCTP or [^35S] dATP to create a 3'-radiolabeled nicked DNA substrate. The reaction mixture contained 50 mM Tris-Cl, pH 7.4 (37° C.), 100 mM KCl, 10 mM MgCl2, 1 mM DTT, 2.5 μM gapped DNA, […] [^32P] dCTP or [^35S] dATP. The single-nucleotide DNA substrate was similar to the nicked substrate described above, except the primer strand was one nucleotide shorter (3'-nucleotide deleted). Gap filling was initiated by addition of pol β and incubated at 37° C. for 5-10 min. The reaction was quenched by addition of 0.5 M EDTA (0.1 vol). To remove enzyme and unincorporated nucleotides, the mixture was extracted with phenol-chloroform-isoamyl alcohol (25:24:1) followed by two passages through BioSpin 6 columns. Aliquots of the labeling reaction were removed before and following the extraction and removal steps to determine final DNA substrate concentration. Pre- and post-aliquots (1 μl) were spotted onto PEI cellulose plates and developed in 0.375 M KH2PO4, pH 4.0. The ratio (post/preextraction) was used to correct the initial DNA concentration for loss or dilution of substrate. Kinetic parameters for the reverse reaction were determined under single turnover conditions (E/DNA=10) at 37° C. […] Time courses were initiated by mixing with an equal volume of a 20 mM MgCl2 and 50 μM dNTP trap solution in reaction buffer. The dNTP trap prevents re-insertion of radiolabeled product dNTP and corresponds to the identity of the nucleotide triphosphate produced during the reaction. […] EDTA (0.1 or 0.2 M) was used as the quenching agent. Substrates and products were resolved by TLC in either 0.2 or 0.3 M NaPi, pH 7.0 buffer. Kinetic analysis. Single-turnover time courses were fit to a single exponential equation to yield the first-order rate constants (kobs) at a given concentration of GMPPNP, PPi or PNP. Under these conditions, kobs was dependent on the concentration of substrate. A secondary plot of the concentration dependence of kobs was hyperbolic and fitted by nonlinear least-squares method to equation (1) where kmax is the intrinsic rate constant for the step limiting the first nucleotide insertion (forward reaction) or removal (reverse reaction). kobs=kmax[S]/[…] (1) […] Unless noted, kinetic constants represent best-fit parameters and their standard error."}, "human DNA polymerase β [6]": {"target": "T2, human DNA polymerase β", "test": "Qualitative reverse reaction assay with PPi analogs", "assay_type": "biochemical", "parameters": "made in house", "settings": "1 mM PPi analog, 10 mM MgCl2, 5′-32P-labeled nicked DNA", "protocol": "Reverse reaction assay. Pol β (1 μM) was pre-incubated with 100 nM nicked DNA containing either a matched or mismatched primer terminus for 5 min at 37° C. in reaction buffer. A solution with 20 mM MgCl2 containing 2 mM PPi or pyrophosphate analog in reaction buffer was used to initiate the reaction. Following mixing, the final concentrations were 500 nM pol β, 50 nM nicked DNA, 10 mM MgCl2, and 1 mM PPi or pyrophosphate analog. Aliquots (5 or 10 μl) were removed at various times and quenched in an equal volume of 0.3 M EDTA, pH 8.0. Reaction substrates and products were separated and visualized as described above."}, "human DNA polymerase β [7]": {"target": "T2, human DNA polymerase β", "test": "Gap filling DNA synthesis kinetic assay (single-turnover insertion)", "assay_type": "biochemical", "parameters": "made in house", "protocol": "Gap filling DNA synthesis kinetic assay. To measure the rate of the first insertion (kpol) and apparent equilibrium nucleotide dissociation constant (Kd), single-turnover kinetic assays (enzyme/DNA=10) were performed as described previously. Briefly, a pre-incubated solution of enzyme and DNA was rapidly mixed with various concentrations of MgCl2 and dGMPPNP using a Kintek RQF-3 rapid quench-flow. Reactions were quenched with 0.25 M EDTA.\nwhere S=dGMPPNP, PPi, or PNP. For the insertion of dGMPPNP, the secondary plot was fit to a quadratic equation (equation (2)) due to its high affinity relative to the enzyme concentration.\nkobs=(kpol)(((Kd+[dGMPPNP]+[EDNA])((Kd+[dGMPPNP]+[EDNA])^2)−(4[dGMPPNP][EDNA]))^0.5)/2[EDNA] (2)"}, "[8]": {"settings": "single-turnover gap filling, relative to natural nucleotide"}}, "note": "“Also recorded” adds a separate entry of the source.", "data": [{"smiles": "O=P(O)(O)NP(=O)(O)O", "note": "[PNP, imidodiphosphate]", "values": [{"measurement": "complexes that had undergone a reverse reaction (occupancy refinement)", "setting": "[1]; short Mg2+ soak of PNP-Ca2+ ternary complex crystals", "result": "approximately 40%"}]}, {"smiles": "O=P(O)(O)OP(=O)(O)O", "note": "[PPi, pyrophosphate]", "values": [{"measurement": "removal of a 3′ mismatched nucleotide", "setting": "human DNA polymerase β [2]", "result": "very poor"}, {"measurement": "calculated equilibrium constant", "setting": "human DNA polymerase β [3]; 1000 μM PPi", "result": "62,700"}, {"measurement": "calculated equilibrium constant", "setting": "human DNA polymerase β [3]; 2000 M PPi", "result": "82,300"}, {"measurement": "overall equilibrium constant Keq", "setting": "human DNA polymerase β [3]; different PPi concentrations, mean and standard error of 6 determinations", "result": "68,700±7,200"}, {"measurement": "observed rate for the exchange reaction", "setting": "human DNA polymerase β [4]", "result": 0.028, "unit": "s⁻¹"}, {"measurement": "kobs for removal of 32P-labeled dAMP", "setting": "human DNA polymerase β [5]; 1 mM PPi, 3′-[32P]dAMP primer terminus, single-turnover", "result": 0.030, "unit": "s⁻¹"}, {"measurement": "kobs for removal of 35S-labeled dAMP", "setting": "human DNA polymerase β [5]; 1 mM PPi, 3′-[35S]dAMP (phosphorothioate) primer terminus, single-turnover", "result": 0.039, "unit": "s⁻¹"}, {"measurement": "Kd", "setting": "human DNA polymerase β [5]; nicked DNA with 3′-[32P]dCMP, single-turnover, secondary plot of kobs, read-out: apparent PPi binding affinity (Kd)", "result": "~90", "unit": "µM"}, {"measurement": "observed rate constant for the reverse reaction (krev)", "setting": "human DNA polymerase β [5]; nicked DNA, single-turnover (enzyme/DNA>1)", "result": "~0.03", "unit": "s⁻¹"}, {"measurement": "phosphorothioate (thio-elemental) effect krev(O)/krev(S)", "setting": "human DNA polymerase β [5]; removal of 3′-terminal Rp-phosphorothioate nucleotide vs dAMP", "result": "no phosphorothioate elemental effect"}, {"measurement": "reverse reaction in crystals", "setting": "[1]; binary pol β-nicked DNA crystals soaked with ligand", "result": "did not generate dNTP"}]}, {"smiles": "O=P(O)(O)C(Cl)(Cl)P(=O)(O)O", "note": "[clodronate]", "values": [{"measurement": "ability to serve as substrate for the reverse reaction (qualitative)", "setting": "human DNA polymerase β [6]", "result": "poor"}]}, {"smiles": "Nc1nc2c(ncn2[C@H]2C[C@H](O)[C@@H](COP(=O)(O)OP(=O)(O)NP(=O)(O)O)O2)c(=O)[nH]1", "note": "[dGMPPNP, 2′-deoxyguanosine-5′-[(β, γ)-imido]triphosphate]", "values": [{"measurement": "inhibition of the forward reaction", "setting": "human DNA polymerase β [7]; binds tightly and is inserted slowly", "result": "good inhibitor"}, {"measurement": "binding affinity", "setting": "human DNA polymerase β [7]; [8]", "result": "increased"}, {"measurement": "rate of insertion", "setting": "human DNA polymerase β [7]; [8]", "result": "strongly diminished; also recorded: two orders of magnitude"}]}, {"smiles": "CC(O)(P(=O)(O)O)P(=O)(O)O", "note": "[etidronate]", "values": [{"measurement": "ability to serve as substrate for the reverse reaction (qualitative)", "setting": "human DNA polymerase β [6]", "result": "moderate"}]}, {"smiles": "NCCC(O)(P(=O)(O)O)P(=O)(O)O", "note": "[pamidronate]", "values": [{"measurement": "ability to serve as substrate for the reverse reaction (qualitative)", "setting": "human DNA polymerase β [6]", "result": "poor"}]}]}
